# Results from PMC12238723, “Phase I Clinical Trial of CVL218, a Novel PARP1/2 Inhibitor, in Patients with Advanced Solid Tumors” (MedComm, 2025).
# Legend:
# [1] = Plasma PK after a single oral dose (Cycle 0 Day 1); format: in vivo, patients
# Protocol: CVL218 was administered orally, and this dose‐escalation trial included nine dose levels: 100 mg QD (50 mg BID), 200 mg QD (100 mg BID), 400 mg QD (200 mg BID), 700 mg QD (350 mg BID), 1000 mg QD (500 mg BID), 1200 mg QD (600 mg BID), 1400 mg QD (700 mg BID), 1700 mg QD (850 mg BID), and 2000 mg QD (1000 mg BID). Patients enrolled in the study received a single oral dose on the first day, followed by continuous multiple dosing (twice a day taking 12 h apart) after 72 h, with the treatment cycle lasting 4 weeks. The period during which patients received a single dose is designated as cycle 0 (C0), lasting 72 h. After this period, patients begin multiple dosing, referred to as cycle 1 (C1). An initial accelerated titration design was employed for the three lowest dose groups, and the “3+3” design was applied starting with the 300 mg BID cohort.
# A clinical PK study of CVL218 was conducted, involving blood samples collection during single‐dose administration (before treatment and 0.5, 1, 2, 3, 4, 5, 6, 8, 10, 12, and 24 h after treatment on C0D1) and multiple dosing (before treatment and 0.5, 1, 2, 3, 4, 5, 6, 8, 10, and 12 h after treatment on C1D1; before treatment on C1D8, C1D15, and C1D22; before treatment and 0.5, 1, 2, 3, 4, 5, 6, 8, 10, and 12 h after treatment on C1D28)
# Single‐dose and multiple‐dose PK parameters included C max, T max, elimination half‐life (T 1/2), AUC0– t , AUC0–inf, oral clearance (CL/F), and apparent volume of distribution (V z/F) for CVL218. Tumor response was assessed per RECIST 1.1. ORR was defined as proportion of patients with a CR or PR on at least one visit, while DCR was defined as proportion of patients with a CR or PR or SD. PFS was defined as the time from the first dose of either drug to investigator assessed radiologic PD or to death of any cause. PFS would be censored at the time of last tumor assessment.
# Subjects who received at least one dose of CVL218 with postadministration safety records were included in safety analysis set. Subjects who received at least one dose of CVL218 with at least one evaluable PK parameter were included in PK analysis set. Per‐protocol set were used for efficacy analysis. Descriptive statistics of safety were presented per CTCAE v5.0. The PK parameters T max and T 1/2 were shown as the median (min, max) and mean ± SD, respectively. A two‐sided p < 0.05 was considered to indicate statistical significance. Statistical analysis was performed by using GraphPad prism 8.0.2 and R‐4.3.3.
# [2] = system: human ether‐a‐go‐go‐related gene channel; design: method as in PMID 27926532, PMID 36283983; details: cited from earlier work
# [3] = design: method as in PMID 36283983; details: cited from earlier work
# [4] = single dose C0D1, 100mg QD, n 1
# [5] = single dose C0D1, 200mg QD, n 1
# [6] = single dose C0D1, 400mg QD, n 1
# [7] = single dose C0D1, 700mg QD, n 4
# [8] = single dose C0D1, 1000mg QD, n 4
# [9] = single dose C0D1, 1200mg QD, n 4
# [10] = single dose C0D1, 1400mg QD, n 6
# [11] = single dose C0D1, 1700mg QD, n 5
smiles,measurement,setting,value
CNCc1ccc(-c2cc3cc(F)cc(C(N)=O)c3o2)cc1.Cl [CVL218],"AUC0-inf, Geometric Mean",[1]; [4],231.0 ng·h/mL
same,"AUC0-t, Geometric Mean",[1]; [4],207.0 ng·h/mL
same,"Cl/F, Geometric Mean",[1]; [4],432000.0 mL/h
same,"Cmax, Geometric Mean",[1]; [4],40.9 ng/mL
same,"T1/2, Mean",[1]; [4],3.6 h
same,"Vz/F, Geometric Mean",[1]; [4],2270000.0 mL
same,"AUC0-inf, Geometric Mean",[1]; [5],1360.0 ng·h/mL
same,"AUC0-t, Geometric Mean",[1]; [5],1310.0 ng·h/mL
same,"Cl/F, Geometric Mean",[1]; [5],147000.0 mL/h
same,"Cmax, Geometric Mean",[1]; [5],218.0 ng/mL
same,"T1/2, Mean",[1]; [5],5.1 h
same,"Vz/F, Geometric Mean",[1]; [5],1080000.0 mL
same,"AUC0-inf, Geometric Mean",[1]; [6],2010.0 ng·h/mL
same,"AUC0-t, Geometric Mean",[1]; [6],1900.0 ng·h/mL
same,"Cl/F, Geometric Mean",[1]; [6],199000.0 mL/h
same,"Cmax, Geometric Mean",[1]; [6],334.0 ng/mL
same,"T1/2, Mean",[1]; [6],6.0 h
same,"Vz/F, Geometric Mean",[1]; [6],1710000.0 mL
same,"AUC0-inf, Geometric Mean",[1]; [7],3450.0 ng·h/mL
same,"AUC0-t, Geometric Mean",[1]; [7],3260.0 ng·h/mL
same,"Cl/F, Geometric Mean",[1]; [7],203000.0 mL/h
same,"Cmax, Geometric Mean",[1]; [7],360.0 ng/mL
same,"T1/2, Mean",[1]; [7],6.3 h
same,"Vz/F, Geometric Mean",[1]; [7],1700000.0 mL
same,"AUC0-inf, Geometric Mean",[1]; [8],4820.0 ng·h/mL
same,"AUC0-t, Geometric Mean",[1]; [8],4095.0 ng·h/mL
same,"Cl/F, Geometric Mean",[1]; [8],212000.0 mL/h
same,"Cmax, Geometric Mean",[1]; [8],579.5 ng/mL
same,"T1/2, Mean",[1]; [8],6.2 h
same,"Vz/F, Geometric Mean",[1]; [8],2205000.0 mL
same,"AUC0-inf, Geometric Mean",[1]; [9],4415.0 ng·h/mL
same,"AUC0-t, Geometric Mean",[1]; [9],4175.0 ng·h/mL
same,"Cl/F, Geometric Mean",[1]; [9],276000.0 mL/h
same,"Cmax, Geometric Mean",[1]; [9],547.5 ng/mL
same,"T1/2, Mean",[1]; [9],6.3 h
same,"Vz/F, Geometric Mean",[1]; [9],2155000.0 mL
same,"AUC0-inf, Geometric Mean",[1]; [10],5360.0 ng·h/mL
same,"AUC0-t, Geometric Mean",[1]; [10],5190.0 ng·h/mL
same,"Cl/F, Geometric Mean",[1]; [10],274500.0 mL/h
same,"Cmax, Geometric Mean",[1]; [10],633.0 ng/mL
same,"T1/2, Mean",[1]; [10],4.7 h
same,"Vz/F, Geometric Mean",[1]; [10],1920000.0 mL
same,"AUC0-inf, Geometric Mean",[1]; [11],4180.0 ng·h/mL
same,"AUC0-t, Geometric Mean",[1]; [11],4070.0 ng·h/mL
same,"Cl/F, Geometric Mean",[1]; [11],407000.0 mL/h
same,"Cmax, Geometric Mean",[1]; [11],408.0 ng/mL
same,"T1/2, Mean",[1]; [11],5.8 h
same,"Vz/F, Geometric Mean",[1]; [11],2780000.0 mL
same,median Tmax,"[1]; single dose, range over cohorts",1 to 4 h
same,mean half-life,"[1]; single oral dose, range over cohorts",3.6 to 6.3 h
same,inhibitory activity on the hERG channel,[2],without inhibitory activity
same,blood–brain barrier crossing,[3],readily crosses the blood–brain barrier
